Data as given in PubChem BioAssay AID330 (DTP/NCI, 2004).
Where “and” joins values, the source holds several entries; their conditions need not be identical. Identical values can stand only once. Toxic doses and inconclusive results are not listed. Rule for the calls: active = survival T/C of 150% or more; inactive = T/C below 125% in these data.

Tested on: P388 leukemia ip, CD2F1 mice, survival T/C
Assay: NCI In Vivo Anticancer Drug Screen. Data for tumor model P388 Leukemia (intraperitoneal) in CD2F1 (CDF1) mice
Details: endpoint: median survival time, higher = longer survival
Method in brief: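 Mice carrying the transplanted tumor received test compound or vehicle. Survival was recorded in each group, and the value is the treated-group measurement divided by that of the vehicle-treated control group.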

[1] = dose: 100.0 mg/kg/injection, schedule: Q01DX001 (ip), vehicle: saline with Tween-80
[2] = dose: 200.0 mg/kg/injection, schedule: Q01DX001 (ip), vehicle: saline with Tween-80
[3] = dose: 100.0 mg/kg/injection, schedule: Q01DX001 (ip), vehicle: Klucel (hydroxypropylcellulose) (HPC)
[4] = dose: 200.0 mg/kg/injection, schedule: Q01DX001 (ip), vehicle: Klucel (hydroxypropylcellulose) (HPC)
[5] = dose: 25.0 mg/kg/injection, schedule: Q01DX009 (ip), vehicle: saline with Tween-80

Measured: T/C

Clc1ccc(CN2COc3c(cc(Cl)c4cccnc34)C2)cc1Cl
inactive: dose: 100.0 mg/kg/injection, schedule: Q04DX003 (ip), vehicle: Klucel (hydroxypropylcellulose) (HPC) 97 % of control | dose: 200.0 mg/kg/injection, schedule: Q04DX003 (ip), vehicle: Klucel (hydroxypropylcellulose) (HPC) 97 % of control | dose: 400.0 mg/kg/injection, schedule: Q04DX003 (ip), vehicle: Klucel (hydroxypropylcellulose) (HPC) 89 % of control

CC12CCC(Cl)CC1=CCC1C2CCC2(C)C1CCCN2CCCl (configuration not stated)
inactive: dose: 6.25 mg/kg/injection, schedule: Q01DX001 (ip), vehicle: saline 99 % of control | dose: 12.5 mg/kg/injection, schedule: Q01DX001 (ip), vehicle: saline 98 % of control | dose: 25.0 mg/kg/injection, schedule: Q01DX001 (ip), vehicle: saline with Tween-80 109 % of control | dose: 25.0 mg/kg/injection, schedule: Q01DX001 (ip), vehicle: saline 98 % of control and 104 % of control

CC1CCCC/C1=N/SC(c1ccccc1)(c1ccccc1)c1ccccc1 (configuration not stated)
inactive: [1] 91 % of control | [2] 89 % of control | dose: 400.0 mg/kg/injection, schedule: Q01DX001 (ip), vehicle: saline with Tween-80 87 % of control

O=C(Cc1nc2ccccc2[nH]1)N/N=C1\SCC(=O)N1C1CCCCC1
inactive: [3] 98 % of control | [4] 100 % of control | dose: 400.0 mg/kg/injection, schedule: Q01DX001 (ip), vehicle: Klucel (hydroxypropylcellulose) (HPC) 99 % of control

Cc1cc2c(cc1C)NC1C(=O)C(c3ccccc3Cl)OC1=N2 (configuration not stated)
inactive: dose: 50.0 mg/kg/injection, schedule: Q01DX005 (ip), vehicle: Klucel + Tween-80 92 % of control | dose: 100.0 mg/kg/injection, schedule: Q01DX005 (ip), vehicle: Klucel + Tween-80 94 % of control | dose: 200.0 mg/kg/injection, schedule: Q01DX005 (ip), vehicle: Klucel + Tween-80 91 % of control

CS(=O)(=O)OCCCl
inactive: [5] 105 % of control and 108 % of control | dose: 50.0 mg/kg/injection, schedule: Q01DX009 (ip), vehicle: saline with Tween-80 107 % of control and 112 % of control | dose: 75.0 mg/kg/injection, schedule: Q01DX005 (ip), vehicle: saline with Tween-80 113 % of control and 86 % of control | dose: 75.0 mg/kg/injection, schedule: Q01DX009 (ip), vehicle: saline with Tween-80 102 % of control | [1] 100 % of control | dose: 100.0 mg/kg/injection, schedule: Q01DX005 (ip), vehicle: saline with Tween-80 114 % of control and 94 % of control | dose: 100.0 mg/kg/injection, schedule: Q01DX009 (ip), vehicle: saline with Tween-80 111 % of control | [2] 110 % of control

Fc1ccc2c(c1)C(Br)c1ccccc1-2 (configuration not stated)
inactive: dose: 6.25 mg/kg/injection, schedule: Q01DX009 (ip), vehicle: saline with Tween-80 104 % of control | dose: 12.5 mg/kg/injection, schedule: Q01DX009 (ip), vehicle: saline with Tween-80 100 % of control | [5] 109 % of control

C/C(=N/NC(=O)c1ccccc1)C(=O)OC(=NC1CCCCC1)NC1CCCCC1
inactive: dose: 100.0 mg/kg/injection, schedule: Q04DX002 (ip), vehicle: Klucel (hydroxypropylcellulose) (HPC) 99 % of control | dose: 200.0 mg/kg/injection, schedule: Q04DX002 (ip), vehicle: Klucel (hydroxypropylcellulose) (HPC) 95 % of control | dose: 400.0 mg/kg/injection, schedule: Q04DX002 (ip), vehicle: Klucel (hydroxypropylcellulose) (HPC) 96 % of control

O=[N+]([O-])c1cccc(S(=O)(=O)N/N=C/c2cccc([N+](=O)[O-])c2O)c1
inactive: dose: 60.0 mg/kg/injection, schedule: Q01DX005 (ip), vehicle: saline with Tween-80 106 % of control | dose: 120.0 mg/kg/injection, schedule: Q01DX005 (ip), vehicle: saline with Tween-80 107 % of control | dose: 240.0 mg/kg/injection, schedule: Q01DX005 (ip), vehicle: saline with Tween-80 104 % of control

COc1cc([C@@H]2c3cc4c(cc3[C@H](OC(=O)c3ccccc3C(=O)O)[C@H]3COC(=O)[C@H]23)OCO4)cc(OC)c1OC
inactive: dose: 12.5 mg/kg/injection, schedule: Q01DX005 (ip), vehicle: Klucel (hydroxypropylcellulose) (HPC) 119 % of control | dose: 25.0 mg/kg/injection, schedule: Q01DX005 (ip), vehicle: Klucel (hydroxypropylcellulose) (HPC) 119 % of control

Cc1ccc(-c2cc3cc4c(cc3[nH]2)Sc2ccccc2O4)cc1
inactive: [3] 98 % of control | [4] 89 % of control
